Results published in patent US9133207B2, “Tetrandrine derivatives with substituted 5-carbon, preparation method and use thereof” (Hangzhou Bensheng Pharmaceutical Co., Ltd., priority 2011, dated 2015).
Values after ≈ are worked out from the molar mass of the structure shown. Blank lines part the entries; values can stand above or below the compound they belong to.

Tests used:
[1] = test system: human non-small cell lung cancer cell line A549 transplanted tumor; experiment: Experiment 8-2: transplanted tumor of human lung cancer in nude mice; assay type: in vivo, BALB/c nude mice; conditions: 50 mg/kg intragastric, 3 times a day, 10 days, Day 29, M±SD
Excerpt: Cell lines: human non-small cell lung cancer cell line A549, from China Center for Type Culture Collection (CCTCC);
The administrations are successive for 10 days.

[2] = Experiment 8-2: body weight of nude mice, preliminary toxicity; conditions: M±SD
Experimental: Animal: BALB/c nude mice, 8 weeks, female, purchased from Shanghai Laboratory Animal Center of Chinese Academy of Sciences, China.
The mice are administered from the third day after the inoculation. Each mouse is intragastrically administered in 0.4 ml each time and 3 times a day, at 8:00, 14:00 and 20:00, with 6-hour intervals. The administrations are successive for 10 days. The day before administration is deemed as Day 0 and the body weight and tumor size are determined every 5 days to produce a dynamic plot on body weight and tumor growth. On Day 29, the mice are dissected and the tumors are taken out and weighted. The tumor inhibition rate (%) is calculated after the effect of the medicament based on the tumor inhibition rate of the control group being zero.
The values determined are presented as mean±standard error (M±SD).

[3] = test system: H9 (acute lymphoblastic leukemia, ALL); experiment: Leukemia cell growth inhibition, MTT, 72 h (Example 5); assay type: cell-based, human; conditions: Homo sapiens; 72 h, MTT
In short: (§1)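 Viability read by MTT after 72 h of compound treatment at 37 °C under 5% CO2; each well seeded with 6000 cells in 1640 medium plus 10% fetal bovine serum, compounds at several concentrations.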

[4] = test system: NB4 (acute promyelocytic leukemia, AML); experiment: as above; assay type: cell-based, human; conditions: Homo sapiens; 72 h, MTT
In short: as §1

[5] = test system: Kasumi-1 (acute myeloid leukemia M2 type, AML-M2); experiment: as above; assay type: cell-based, human; conditions: Homo sapiens, Kasumi 1
In short: as §1

[6] = test system: K562/adr (drug-resistant, chronic myeloid leukemia, CML); experiment: as above; assay type: cell-based, human; conditions: Homo sapiens, K562/Adr; 72 h, MTT
In short: as §1

[7] = test system: Jurkat (acute lymphoblastic leukemia, ALL); experiment: as above; assay type: cell-based, human; conditions: for IC50 / IC90: Homo sapiens, Jurkat, 72 h, MTT
In short: as §1

[8] = test system: RPMI8226 (multiple myeloma); experiment: Multiple myeloma cell growth inhibition, MTT, 72 h (Example 6); assay type: cell-based, human; conditions: Homo sapiens, RPMI-8226; 72 h, MTT, RPMI8226
In short: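 Viability was read by MTT after 72 h of compound exposure at 37 °C, 5% CO2. Each well held 6000 RPMI8226 cells in 1640 medium containing 10% fetal bovine serum, with derivatives added at various concentrations.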

[9] = test system: U87 MG (malignant glioma cell); experiment: Solid tumor cell growth inhibition, MTT, 72 h (Example 7); assay type: cell-based; conditions: Homo sapiens, U-87 MG
In short: (§2)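 MTT read-out of viable cells after 72 h compound treatment, reported as percent viability versus untreated control (100%). Cells seeded at 4000 per well, grown 24 h beforehand in 10% FBS DMEM high glucose, 37 °C, 5% CO2.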

[10] = test system: RKO (human colon adenocarcinoma cell); experiment: as above; assay type: cell-based; conditions: Homo sapiens; 72 h, MTT, RKO
In short: as §2

[11] = test system: SK-OV-3 (ovarian cancer cell); experiment: as above; assay type: cell-based; conditions: Homo sapiens
In short: as §2

[12] = test system: Becap37 (human breast cancer cell); experiment: as above; assay type: cell-based; conditions: Homo sapiens; 72 h, MTT, Becap-37
In short: as §2

[13] = test system: MGC 803 (human gastric cancer cell); experiment: as above; assay type: cell-based; conditions: Homo sapiens
In short: as §2

[14] = test system: A549 (human lung cancer); experiment: as above; assay type: cell-based; conditions: Homo sapiens; 72 h, MTT, A549
In short: as §2

[15] = test system: Hela (human cervical cancer cell); experiment: as above; assay type: cell-based; conditions: Homo sapiens; 72 h, MTT, Hela
In short: as §2

[16] = test system: Huh7 (human liver cancer cell); experiment: as above; assay type: cell-based; conditions: Homo sapiens; 72 h, MTT, Huh-7
In short: as §2

[17] = test system: CNE (nasopharyngeal carcinoma cell); experiment: as above; assay type: cell-based; conditions: Homo sapiens
In short: as §2

[18] = test system: CaES-17 (esophageal cancer cell); experiment: as above; assay type: cell-based, human; conditions: Homo sapiens, CaEs17; 72 h, MTT, CAES-17
In short: as §2

[19] = test system: Hep-2 (laryngeal carcinoma); experiment: as above; assay type: cell-based, human; conditions: Homo sapiens; 72 h, MTT, Hep 2
In short: as §2

[20] = test system: PANC-1 (pancreatic cancer); experiment: as above; assay type: cell-based, human; conditions: Homo sapiens; 72 h, MTT, PANC-1
In short: as §2

[21] = test system: MG63 (osteosarcoma); experiment: as above; assay type: cell-based, human; conditions: Homo sapiens; 72 h, MTT, MG-63
In short: as §2

[22] = test system: PC-3 (prostate cancer); experiment: as above; assay type: cell-based, human; conditions: Homo sapiens; 72 h, MTT, PC-3
In short: as §2

SMILES: COc1cc2ncnc(Nc3ccc(F)c(Cl)c3)c2cc1OCCCN1CCOCC1 [Jef, gefitinib, reference compound]
- Mass of tumor [1]: 883 ± 273.32 mg
- Weight (g) Final ([2]; 50 mg/kg intragastric, 3 times a day, 10 days, final body weight): 21.8 ± 0.99 g
- Weight (g) Initial ([2]; nude mice body weight before administration): 22.1 ± 0.17 g

- IC50 [3]: 1.38 µg/mL (≈ 1.9 µM)
- IC90 [3]: 3.41 µg/mL (≈ 4.7 µM)
- IC50 [4]: 1.7 µg/mL (≈ 2.35 µM)
- IC90 [4]: 5.5 µg/mL (≈ 7.59 µM)
- IC50 [5]: 1.33 µg/mL (≈ 1.83 µM)
- IC90 [5]: 6.67 µg/mL (≈ 9.2 µM)
- IC50 [6]: 1.44 µg/mL (≈ 1.99 µM)
- IC90 [6]: 5.38 µg/mL (≈ 7.42 µM)
- IC50 [7]: 1.57 µg/mL (≈ 2.17 µM)
- IC90 [7]: 9.9 µg/mL (≈ 13.7 µM)
- IC50 [8]: 0.52 µg/mL (≈ 0.717 µM)
- IC90 [8]: 2.81 µg/mL (≈ 3.88 µM)
- IC50 [9]: 2.86 µg/mL (≈ 3.95 µM)
- IC90 [9]: 6.66 µg/mL (≈ 9.19 µM)
- IC50 [10]: 0.89 µg/mL (≈ 1.23 µM)
- IC90 [10]: 1.99 µg/mL (≈ 2.75 µM)
- IC50 [11]: 7.1 µg/mL (≈ 9.79 µM)
- IC90 [11]: > 16 µg/mL
- IC50 [12]: 3.5 µg/mL (≈ 4.83 µM)
- IC90 [12]: 10.8 µg/mL (≈ 14.9 µM)
- IC50 [13]: 2.87 µg/mL (≈ 3.96 µM)
- IC90 [13]: 8 µg/mL (≈ 11 µM)
- IC50 [14]: 8.4 µg/mL (≈ 11.6 µM)
- IC90 [14]: > 16 µg/mL
- IC50 [15]: 1.07 µg/mL (≈ 1.48 µM)
- IC90 [15]: 2.89 µg/mL (≈ 3.99 µM)
- IC50 [16]: 2.31 µg/mL (≈ 3.19 µM)
- IC90 [16]: 3.43 µg/mL (≈ 4.73 µM)
- IC50 [17]: 1.6 µg/mL (≈ 2.21 µM)
- IC90 [17]: 3.49 µg/mL (≈ 4.81 µM)
- IC50 [18]: 3.94 µg/mL (≈ 5.44 µM)
- IC90 [18]: 16.4 µg/mL (≈ 22.7 µM)
- IC50 [19]: 2.4 µg/mL (≈ 3.31 µM)
- IC90 [19]: 6.87 µg/mL (≈ 9.48 µM)
- IC50 [20]: 2.73 µg/mL (≈ 3.77 µM)
- IC90 [20]: 16 µg/mL (≈ 22.1 µM)
- IC50 [21]: 2.49 µg/mL (≈ 3.43 µM)
- IC90 [21]: 6.36 µg/mL (≈ 8.77 µM)
- IC50 [22]: 3.32 µg/mL (≈ 4.58 µM)
- IC90 [22]: 6.95 µg/mL (≈ 9.59 µM)
SMILES: COCC(C)OCc1c2c3c(c(OC)c1OC)Oc1cc4c(cc1OC)CCN(C)[C@H]4Cc1ccc(cc1)Oc1cc(ccc1OC)C[C@@H]3N(C)CC2 (stereo partly drawn) [BS-TE-406]

- IC50 [3]: 1.11 µg/mL (≈ 1.52 µM)
- IC90 [3]: 1.92 µg/mL (≈ 2.62 µM)
- IC50 [4]: 0.3 µg/mL (≈ 0.41 µM)
- IC90 [4]: 1 µg/mL (≈ 1.37 µM)
- IC50 [5]: 0.54 µg/mL (≈ 0.738 µM)
- IC90 [5]: 2.52 µg/mL (≈ 3.44 µM)
- IC50 [6]: 0.33 µg/mL (≈ 0.451 µM)
- IC90 [6]: 1.6 µg/mL (≈ 2.19 µM)
- IC50 [7]: 0.59 µg/mL (≈ 0.806 µM)
- IC90 [7]: 2.97 µg/mL (≈ 4.06 µM)
- IC50 [8]: 0.05 µg/mL (≈ 0.0683 µM)
- IC90 [8]: 1.51 µg/mL (≈ 2.06 µM)
- IC50 [9]: 0.3 µg/mL (≈ 0.41 µM)
- IC90 [9]: 1.13 µg/mL (≈ 1.54 µM)
- IC50 [10]: 0.45 µg/mL (≈ 0.615 µM)
- IC90 [10]: 0.92 µg/mL (≈ 1.26 µM)
- IC50 [11]: 1.8 µg/mL (≈ 2.46 µM)
- IC90 [11]: 12.9 µg/mL (≈ 17.6 µM)
- IC50 [12]: 0.9 µg/mL (≈ 1.23 µM)
- IC90 [12]: 3.6 µg/mL (≈ 4.92 µM)
- IC50 [13]: 0.89 µg/mL (≈ 1.22 µM)
- IC90 [13]: 4.11 µg/mL (≈ 5.62 µM)
- IC50 [14]: 3 µg/mL (≈ 4.1 µM)
- IC90 [14]: 11 µg/mL (≈ 15 µM)
- IC50 [15]: 0.95 µg/mL (≈ 1.3 µM)
- IC90 [15]: 2.5 µg/mL (≈ 3.42 µM)
- IC50 [16]: 1.82 µg/mL (≈ 2.49 µM)
- IC90 [16]: 2.43 µg/mL (≈ 3.32 µM)
- IC50 [17]: 1.3 µg/mL (≈ 1.78 µM)
- IC90 [17]: 3.3 µg/mL (≈ 4.51 µM)
- IC50 [18]: 1.03 µg/mL (≈ 1.41 µM)
- IC90 [18]: 5.13 µg/mL (≈ 7.01 µM)
- IC50 [19]: 1.51 µg/mL (≈ 2.06 µM)
- IC90 [19]: 4.67 µg/mL (≈ 6.38 µM)
- IC50 [20]: 1.83 µg/mL (≈ 2.5 µM)
- IC90 [20]: 6.04 µg/mL (≈ 8.25 µM)
- IC50 [21]: 0.8 µg/mL (≈ 1.09 µM)
- IC90 [21]: 1.6 µg/mL (≈ 2.19 µM)
- IC50 [22]: 1.87 µg/mL (≈ 2.56 µM)
- IC90 [22]: 2.83 µg/mL (≈ 3.87 µM)
SMILES: COc1ccc2cc1Oc1ccc(cc1)C[C@H]1c3cc(c(OC)cc3CCN1C)Oc1c(OC)c(OC)c(CNCc3ccco3)c3c1[C@H](C2)N(C)CC3 [BS-TE-350]
- anti-Jurkat activity increase over tetrandrine ([7]; compared with tetrandrine): ~4 fold
